≈ marks a conversion by molar mass, not a printed value.
Columns and labels:
[1] = system: transplanted tumor of human large cell lung cancer H460 cells; test: H460 transplanted tumor in nude mice; details: for tumor volume and relative tumor volume compared with the model group: low, medium and high doses, P<0.05; for mouse weight compared with the model group: in vivo
Description: Then cell concentration was adjusted to 1×10^7/ml with matrigel, then each nude mouse was inoculated subcutaneously with 0.2 ml of cells at its right armpit and recorded as the first day of inoculation. When the tumor grows to be greater than or equal to 100 mm^3, the mice were randomly divided into 11 groups with 6 mice in each group: isovaleryl spiramycin I groups with doses of 25, 50 and 100 mg/kg, isovaleryl spiramycin II groups with doses of 25, 50 and 100 mg/kg, and isovaleryl spiramycin III groups with doses of 25, 50 and 100 mg/kg. Each group was continuously administered intragastrically for 30 days with a dose of 20 ml/kg. The mice were sacrificed the next day after drug withdrawal and the indicators were tested. The long diameter and short diameter of the tumor, and the body weight of each mouse were recorded every 3 days from drug administration to nude mouse sacrifice.
The body weight of the nude mice and the long diameter (a) and short diameter (b) of the transplanted tumor were measured every 3 days, and the tumor volume (v), relative tumor volume (RTV) and relative tumor proliferation rate (T/C) are calculated respectively according to the following formulas, wherein V=a×b^2/2; RTV=V/V0 (V0 is the tumor volume before administration, V is the tumor volume before sacrifice), and T/C (%)=treatment group RTV/model control group RTV×100%.
Each mouse was weighed and sacrificed. After the tumor was completely stripped off from the body of the mouse, the non-tumor tissues such as blood stains and fat were removed to weigh the tumor and calculate the tumor growth inhibition rate. The average tumor weight of each group of mice is used as an indicator of efficacy. Tumor growth inhibition rate (%)=(1−the average tumor weight of the treatment group/the average tumor weight of the model group)×100%.

[2] = system: spleen lymphocytes (ConA, LPS stimulation); test: Spleen lymphocyte proliferation activity of Lewis lung cancer tumor-bearing mice; format: in vivo, C57BL/6 mouse; details: for lymphocyte activity compared with the control group: Lewis tumor-bearing mice; for B Lymphocyte Proliferation Activity (%) / T Lymphocyte Proliferation Activity (%): n = 6
Description: In the Lewis lung cancer model, the mice inoculated with the tumor were randomly divided into groups with 10 mice in each group the next day of inoculation. The groups included: a model control group, a positive drug cyclophosphamide control group (CTX, 30 mg/kg), isovaleryl spiramycin I groups with doses of 13, 26 and 52 mg/kg; isovaleryl spiramycin II groups with doses of 13, 26 and 52 mg/kg; isovaleryl spiramycin III groups with doses of 13, 26 and 52 mg/kg. Each group was continuously administered intragastrically for 15 days with a dose of 20 ml/kg.
The serum-free RPMI 1640 medium was placed in a dish, and then the dish was placed on ice. The spleen was aseptically taken and gently ground with a sterile glass slide to prepare a single cell suspension. The single cell suspension was filtered with a double-layer sterile gauze, washed twice with serum-free RPMI1640 medium, and centrifuged at 1,500 rpm for 5 min to remove the obtained supernatant. 2 mL of red blood cell lysate was added to the treated suspension, the mixture was allowed to stand for 2 min, and then 8 mL of RPMI 1640 medium was added, centrifuging was performed at 1,500 rpm for 5 min to remove the obtained supernatant, and then washing was performed twice with the RPMI 1640 medium. […] A single cell suspension was prepared by using a RPMI 1640 medium containing 10% fetal bovine serum.
The spleen cell suspension was taken, and the cell density was adjusted to 1×10^7/mL. Each mouse was set with: A. a control well: 100 μL of RPMI 1640 medium was added; B. a concanavalin A (ConA) stimulation well: 100 μL (10 mg/L) of concanavalin A (ConA) solution was added; and C. a bacterial endotoxin (LPS) stimulating well: 100 μL (20 mg/L) of bacterial endotoxin (LPS) solution was added. The above cells were added to a 96-well plate, and then 100 μL of spleen cell suspension was added to each of the above wells. After the culture plate was transferred to a saturated humidity condition with a volume fraction of 5% CO2 at 37° C. for incubation for 72 h, 10 μL of MTT solution (5 g/L) was added to each well, and incubation was continued to be performed for 4 hours under the same conditions, then the culture was terminated. 100 μl of a triple solution (SDS 10 g, 10M HCl 0.1 mL, […] 5 mL, diluted with distilled water to 100 mL) was added, and the plate was shaken for 10 min to fully dissolve the crystals. The Optical Density (OD) of each well was measured at 570 nm, and the lymphocyte proliferation rate was calculated. Lymphocyte proliferation rate (%)=[(T-C)/C]×100%, wherein T was the Optical Density of the stimulation well, and C is the Optical Density of the control well.

[3] = system: human glioblastoma cell A172; details: A172, MTT, 48 hours
Description: The purpose of the assay is to evaluate the in vitro cell proliferation inhibition or cytotoxic activity of a tested sample.
MCF-7, MDA-MB-231, HepG2, A549, H460, H1299, 786-0, 769-P, U251, A172, HeLa, PC3, PANC-1, TE-1, SGC7901, and HT-29 were adherent tumor cells. The adherent tumor cells in the logarithmic growth phase were selected and digested with trypsin, then were prepared into a 4 to 5×10^4/ml cell suspension by a medium containing 10% fetal bovine serum. And the cell suspension was inoculated in a 96-well culture plate, and each well was 100 μL. The 96-well culture plate was cultured at 37° C. and 5% CO2 for 24 hours. The experimental group was replaced with a new culture medium containing different concentrations of the sample to be tested, namely, isovaleryl spiramycin I, isovaleryl spiramycin II, or isovaleryl spiramycin III, while the control group was replaced with a culture medium containing the same volume of solvent. Each group was set up with 3 parallel wells that were cultured at 37° C. and 5% CO2 for 48 hours. After the supernatant was removed, the wells were washed carefully for 3 times with PBS. And 100 μL of freshly prepared culture medium containing 0.5 mg/ml MTT was added to each well for continuous incubation for 4 hours at 37° C. After the supernatant was removed carefully, 150 μL of DMSO was added to each well, and after the material was mixed for 10 minutes with a micro-oscillator, the optical density value was measured at 492 nm with a microplate reader.
The inhibition rate of the medicament on tumor cell growth is calculated according to the following formula:
Tumor cell growth inhibition rate (%)=[A492 (negative control)−A492 (dosing group)]/A492 (negative control)×100%
And the half-inhibitory concentration (IC50) of the sample is determined therefrom.

[4] = H460, 25 mg/kg (low dose) i.g. 30 days
[5] = H460, 50 mg/kg (medium dose) i.g. 30 days
[6] = H460, 100 mg/kg (high dose) i.g. 30 days
[7] = 13, 26 and 52 mg/kg, P<0.05, P<0.01

| IC50 [3] | SMILES | B Lymphocyte Proliferation Activity (%) ([2]; dose 26 mg/kg) | T Lymphocyte Proliferation Activity (%) ([2]; dose 26 mg/kg) | Inhibition Rate (tumor growth inhibition rate) [1, 4] | Relative Tumor Proliferation Rate (T/C) [1, 4] | Relative Tumor Volume (RTV) [1, 4] | Tumor Volume (d 1) [1, 4] | Tumor Volume (d 30) [1, 4] | Tumor Weight [1, 4] | Inhibition Rate (tumor growth inhibition rate) [1, 5] | Relative Tumor Proliferation Rate (T/C) [1, 5] | Relative Tumor Volume (RTV) [1, 5] | Tumor Volume (d 1) [1, 5] | Tumor Volume (d 30) [1, 5] | Tumor Weight [1, 5] | Inhibition Rate (tumor growth inhibition rate) [1, 6] | Relative Tumor Proliferation Rate (T/C) [1, 6] | Relative Tumor Volume (RTV) [1, 6] | Tumor Volume (d 1) [1, 6] | Tumor Volume (d 30) [1, 6] | further results |
| --- | --- | --- | --- | --- | --- | --- | --- | --- | --- | --- | --- | --- | --- | --- | --- | --- | --- | --- | --- | --- | --- |
| – | O=P1(N(CCCl)CCCl)NCCCO1 (centres unmarked) [Cyclophosphamide, cyclophosphamide, reference compound] | 11.63 ± 4.68 % | 13.24 ± 3.72 % | – | – | – | – | – | – | – | – | – | – | – | – | – | – | – | – | – | Body Weight (d 1) ([1]; H460, 30 mg/kg i.g. 30 days): 20.46 ± 0.54 g; Body Weight (d 30) ([1]; H460, 30 mg/kg i.g. 30 days): 21.20 ± 0.75 g; Inhibition Rate (tumor growth inhibition rate) ([1]; H460, 30 mg/kg i.g. 30 days): 71.08%; Relative Tumor Proliferation Rate (T/C) ([1]; H460, 30 mg/kg i.g. 30 days): 30.86%; Relative Tumor Volume (RTV) ([1]; H460, 30 mg/kg i.g. 30 days): 3.24 ± 0.99; Tumor Volume (d 1) ([1]; H460, 30 mg/kg i.g. 30 days): 146.98 ± 27.55 mm3; Tumor Volume (d 30) ([1]; H460, 30 mg/kg i.g. 30 days): 468.49 ± 128.57 mm3; Tumor Weight ([1]; H460, 30 mg/kg i.g. 30 days): 0.50 ± 0.06 g; lymphocyte activity compared with the control group ([2]; cyclophosphamide, P<0.05): significantly inhibited |
| 10.24 ± 0.37 µg/mL (≈ 11 µM) | CO[C@@H]1[C@@H](O[C@@H]2O[C@H](C)[C@@H](O[C@H]3C[C@@](C)(O)[C@@H](OC(=O)CC(C)C)[C@H](C)O3)[C@H](N(C)C)[C@H]2O)[C@@H](CC=O)C[C@@H](C)[C@@H](O[C@H]2CC[C@H](N(C)C)[C@@H](C)O2)/C=C/C=C/C[C@@H](C)OC(=O)C[C@H]1O [Isovaleryl spiramycin I, isovaleryl spiramycin I] | 44.81 ± 4.41 % | 36.24 ± 2.15 % | 20.70% | 56.56% | 5.94 ± 2.02 | 148.20 ± 15.93 mm3 | 889.44 ± 343.94 mm3 | 1.37 ± 0.13 g | 46.33% | 49.00% | 5.15 ± 2.25 | 148.51 ± 17.68 mm3 | 753.94 ± 306.82 mm3 | 0.93 ± 0.18 g | 70.11% | 31.96% | 3.36 ± 0.85 | 145.08 ± 19.59 mm3 | 477.54 ± 89.21 mm3 | Tumor Weight [1, 6]: 0.52 ± 0.07 g; tumor volume and relative tumor volume compared with the model group ([1]; H460): significantly lower; mouse weight compared with the model group [1]: no significant changes; lymphocyte activity compared with the control group [2, 7]: significantly increase; B Lymphocyte Proliferation Activity (%) ([2]; dose 13 mg/kg): 41.63 ± 7.06 %; T Lymphocyte Proliferation Activity (%) ([2]; dose 13 mg/kg): 25.27 ± 8.20 %; B Lymphocyte Proliferation Activity (%) ([2]; dose 52 mg/kg): 32.71 ± 1.84%; T Lymphocyte Proliferation Activity (%) ([2]; dose 52 mg/kg): 22.26 ± 4.33% |
| 33.62 ± 0.57 µg/mL (≈ 34.7 µM) | COC1C(OC(C)=O)CC(=O)OC(C)CC=CC=CC(OC2CCC(N(C)C)C(C)O2)C(C)CC(CC=O)C1OC1OC(C)C(OC2CC(C)(O)C(OC(=O)CC(C)C)C(C)O2)C(N(C)C)C1O (centres unmarked) [Isovaleryl spiramycin II, isovaleryl spiramycin II] | 32.68 ± 2.68% | 15.82 ± 1.68% | 14.22% | 51.97% | 5.46 ± 1.87 | 147.44 ± 15.40 mm3 | 804.17 ± 292.57 mm3 | 1.48 ± 0.24 g | 34.43% | 46.49% | 4.88 ± 1.36 | 146.77 ± 18.26 mm3 | 700.40 ± 143.83 mm3 | 1.13 ± 0.08 g | 61.12% | 37.89% | 3.98 ± 1.10 | 149.76 ± 13.12 mm3 | 604.38 ± 195.98 mm3 | Tumor Weight [1, 6]: 0.67 ± 0.20 g; tumor volume and relative tumor volume compared with the model group ([1]; H460): significantly lower; mouse weight compared with the model group [1]: no significant changes; lymphocyte activity compared with the control group [2, 7]: significantly increase; B Lymphocyte Proliferation Activity (%) ([2]; dose 13 mg/kg): 39.88 ± 3.57%; T Lymphocyte Proliferation Activity (%) ([2]; dose 13 mg/kg): 16.87 ± 3.28%; B Lymphocyte Proliferation Activity (%) ([2]; dose 52 mg/kg): 35.94 ± 3.80%; T Lymphocyte Proliferation Activity (%) ([2]; dose 52 mg/kg): 19.28 ± 2.35% |
| 16.17 ± 0.54 µg/mL (≈ 16.4 µM) | CCC(=O)O[C@@H]1CC(=O)O[C@H](C)C/C=C/C=C/[C@H](O[C@H]2CC[C@H](N(C)C)[C@@H](C)O2)[C@H](C)C[C@H](CC=O)[C@H](O[C@@H]2O[C@H](C)[C@@H](O[C@H]3C[C@@](C)(O)[C@@H](OC(=O)CC(C)C)[C@H](C)O3)[C@H](N(C)C)[C@H]2O)[C@H]1OC [Isovaleryl spiramycin III, isovaleryl spiramycin III] | 34.69 ± 0.34% | 18.51 ± 2.60% | 17.41% | 63.03% | 6.62 ± 2.34 | 140.44 ± 14.04 mm3 | 914.05 ± 279.14 mm3 | 1.42 ± 0.26 g | 23.31% | 42.54% | 4.47 ± 0.94 | 148.59 ± 14.47 mm3 | 666.74 ± 160.61 mm3 | 1.32 ± 0.25 g | 63.93% | 35.95% | 3.78 ± 0.84 | 143.19 ± 17.40 mm3 | 531.56 ± 78.33 mm3 | Tumor Weight [1, 6]: 0.62 ± 0.26 g; tumor volume and relative tumor volume compared with the model group ([1]; H460): significantly lower; mouse weight compared with the model group [1]: no significant changes; lymphocyte activity compared with the control group [2, 7]: significantly increase; B Lymphocyte Proliferation Activity (%) ([2]; dose 13 mg/kg): 33.91 ± 2.65%; T Lymphocyte Proliferation Activity (%) ([2]; dose 13 mg/kg): 20.17 ± 5.18%; B Lymphocyte Proliferation Activity (%) ([2]; dose 52 mg/kg): 32.28 ± 1.27%; T Lymphocyte Proliferation Activity (%) ([2]; dose 52 mg/kg): 18.25 ± 1.89% |
